Like-named read-outs stand apart in the source and are kept apart here.
Legend:
VIM-1 = VIM-1 (Pseudomonas aeruginosa (strain ATCC 15692 / DSM 22644 / CIP 104116 / JCM 14847 / LMG 12228 / 1C / PRS 101 / PAO1), UniProt A0A0F7KYQ8); assay: biochemical; details: CCF2-FA substrate, 30 pM enzyme, 2 hours at 25° C.
Summary of the method: (§1)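 Two-hour, 25° C incubation of enzyme with inhibitor and CCF2-FA (7-hydroxycoumarin–cephalosporin–fluorescein). Fluorescence read-out; IC50 via 4-parameter fit.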

[1] = system: Escherichia coli expressing NDM-1 (CLB30005, CLB30016); assay type: cell-based; details: NDM-1 strain, with imipenem 1 μg/ml, 95% inhibition of growth
Summary of the method: (§2)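 Growth by absorbance after 22–24 h at 35°C defined the read-out, with imipenem fixed at 1 μg/ml alongside compound. Inocula came from overnight blood-agar colonies at 35°C, resuspended in saline and diluted 1:100 in 1.1×CAMHB.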

[2] = system: Serratia marcescens expressing IMP-1 (CL5741); assay type: cell-based; details: IMP-1 strain CL5741, with imipenem 1 μg/ml, 95% inhibition of growth
Summary of the method: as §2

[3] = system: Klebsiella pneumoniae expressing VIM-1 (IHMA599644); assay type: cell-based; details: VIM-1 strain IHMA599644, with imipenem 1 μg/ml, 95% inhibition of growth
Summary of the method: as §2

[4] = system: Pseudomonas aeruginosa efflux+ (MB9798), IMP-1; assay type: cell-based; details: concentration restoring susceptibility to imipenem at 2 μg/mL in the presence of a class A, C, D serine β-lactamase inhibitor closely related to relebactam
Summary of the method: (§3)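 P. aeruginosa PAO1-derived IMP-1 strains, efflux+ MB9798 and efflux− MB9799, tested by standard microbroth MIC with imipenem and/or ceftazidime fixed, usually at CLSI breakpoint, plus fixed class A/C β-lactamase inhibitor against AmpC. Inhibitor titrated; concentration restoring susceptibility recorded; MB9798/MB9799 fold difference indicates efflux.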

[5] = system: Pseudomonas aeruginosa MB9798 vs MB9799; details: ratio MITC95 PA_9798/MITC95 PA_9799
Summary of the method: as §3

[6] = system: Pseudomonas aeruginosa efflux− (MB9799), IMP-1; assay type: cell-based; details: concentration restoring susceptibility to imipenem at 2 μg/mL in the presence of a class A, C, D serine β-lactamase inhibitor closely related to relebactam
Summary of the method: as §3

IMP-1 = IMP-1 (Serratia marcescens, UniProt P52699); assay: biochemical; assay type: biochemical; details: fluorescence assay, CCF2-FA substrate, 2 pM enzyme, 2 hours at 25° C.; read-out: IMP-1 IC50
Summary of the method: as §1

NDM-1 = NDM-1 (Klebsiella pneumoniae, UniProt C7C422); assay: biochemical; assay type: biochemical; details: fluorescence assay, CCF2-FA substrate, 1 pM enzyme, 2 hours at 25° C.; read-out: NDM-1 IC50
Summary of the method: as §1

[7] = fluorescence assay, read-out: VIM-1 IC50

IMP-1, sequence (P52699 whole entry, looked up, species assumed): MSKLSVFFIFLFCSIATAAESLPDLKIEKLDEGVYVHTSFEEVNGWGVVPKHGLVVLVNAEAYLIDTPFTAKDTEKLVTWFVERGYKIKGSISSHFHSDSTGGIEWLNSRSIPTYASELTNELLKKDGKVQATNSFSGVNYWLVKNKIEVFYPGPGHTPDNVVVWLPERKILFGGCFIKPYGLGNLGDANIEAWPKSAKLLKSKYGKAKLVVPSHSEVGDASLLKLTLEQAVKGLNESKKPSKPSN
NDM-1, sequence (C7C422 whole entry, looked up, species assumed): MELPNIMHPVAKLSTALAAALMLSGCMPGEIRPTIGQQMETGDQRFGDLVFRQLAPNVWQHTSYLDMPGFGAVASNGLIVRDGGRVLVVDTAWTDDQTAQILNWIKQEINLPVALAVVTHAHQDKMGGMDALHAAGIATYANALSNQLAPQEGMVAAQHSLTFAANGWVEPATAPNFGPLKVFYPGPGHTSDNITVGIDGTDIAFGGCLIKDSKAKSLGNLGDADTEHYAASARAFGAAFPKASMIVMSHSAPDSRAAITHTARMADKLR

Row | Structure (SMILES) | IC50 (VIM-1; VIM-1 IC50, fluorescence assay) [pM] | Escherichia coli MITC95 [1] [µM] | Serratia marcescens MITC95 [2] [µM] | Klebsiella pneumoniae MITC95 [3] [µM] | P. aeruginosa expressing IMP-1, efflux + (MB9798) MITC95 [4] [µM] | Efflux ratio [5] | P. aeruginosa expressing IMP-1, efflux − (MB9799) MITC95 [6] [µM] | IC50 (IMP-1) [pM] | IC50 (NDM-1) [pM] | IC50 (VIM-1; [7]) [pM]
1 | NCc1nc2c(-c3ccc(S(=O)(=O)N[C@H](CN)CO)c(S(N)(=O)=O)c3-c3nn[nH]n3)cccc2s1 [Example 363, (R)—N1-(1-amino-3-hydroxypropan-2-yl)-4-(2-(aminomethyl)benzo[d]thiazol-4-yl)-3-(2H-tetrazol-5-yl)benzene-1,2-disulfonamide] | 591 | 3.125 | 1.563 | 3.125 | 3.125 | 4.00 | 0.7813 | 3670 | 649 | 
2 | NC[C@H](CO)NS(=O)(=O)c1ccc(-c2cccc(N)n2)c(-c2nn[nH]n2)c1S(N)(=O)=O [Example 364, (R)—N^1-(1-amino-3-hydroxypropan-2-yl)-4-(6-aminopyridin-2-yl)-3-(2H-tetrazol-5-yl)benzene-1,2-disulfonamide] |  | 3.125 | 3.125 | 6.25 | 3.125 | 2.00 | 1.563 | 14600 | 3250 | 3240
3 | Nc1ccc(-c2ccc(S(=O)(=O)NC[C@@H](N)CO)c(S(N)(=O)=O)c2-c2nn[nH]n2)cn1 [Example 365, (R)—N1-(2-amino-3-hydroxypropyl)-4-(6-aminopyridin-3-yl)-3-(2H-tetrazol-5-yl) benzene-1,2-disulfonamide] |  | 0.1953 | 0.3906 | 3.125 | 1.563 | 2.00 | 0.7813 | 590 | 259 | 246
4 | Nc1nc2c(-c3ccc(S(=O)(=O)NC[C@]4(N)CCNC4)c(S(N)(=O)=O)c3-c3nn[nH]n3)cccc2s1 [Example 366, (S)-4-(2-aminobenzo[d]thiazol-4-yl)-N^1-((3-aminopyrrolidin-3-yl)methyl)-3-(2H-tetrazol-5-yl) benzene-1,2-disulfonamide] | 105 | 0.7813 | 1.563 | 3.125 | 0.7813 | 1.00 | 0.7813 | 75.3 | 22.5 | 
5 | Nc1nc2c(-c3ccc(S(=O)(=O)NC[C@@]4(N)CCNC4)c(S(N)(=O)=O)c3-c3nn[nH]n3)cccc2s1 [Example 367, (R)-4-(2-aminobenzo[d]thiazol-4-yl)-N1-((3-aminopyrrolidin-3-yl)methyl)-3-(2H-tetrazol-5-yl)benzene-1,2-disulfonamide] | 97.5 | 1.563 | 1.563 | 3.125 | 0.7813 | 0.50 | 1.563 | 76.6 | 19.3 | 
6 | Nc1ccc(-c2ccc(S(=O)(=O)NC[C@]3(N)CCNC3)c(S(N)(=O)=O)c2-c2nn[nH]n2)cn1 [Example 368, (S)-4-(6-aminopyridin-3-yl)-N1-((3-aminopyrrolidin-3-yl)methyl)-3-(2H -tetrazol-5-yl)benzene-1,2-disulfonamide] | 253 | 0.7813 | 0.7813 | 3.125 | 1.563 | 1.00 | 1.563 | 304 | 203 | 
7 | Nc1ccc(-c2ccc(S(=O)(=O)NC[C@@]3(N)CCNC3)c(S(N)(=O)=O)c2-c2nn[nH]n2)cn1 [Example 369, (R)-4-(6-aminopyridin-3-yl)-N1-((3-aminopyrrolidin-3-yl)methyl)-3-(2H -tetrazol-5-yl)benzene-1,2-disulfonamide] | 302 | 0.3906 | 0.7813 | 3.125 | 1.563 | 1.00 | 1.563 | 508 | 276 | 
8 | NC[C@H](N)CNS(=O)(=O)c1ccc(-c2cccc3[nH]c(N)nc23)c(-c2nn[nH]n2)c1S(N)(=O)=O [Example 370, (S)-4-(2-amino-1H-benzo[d]imidazol-4-yl)-N1-(2,3-diaminopropyl)-3-(2H-tetrazol-5-yl)benzene-1,2-disulfonamide] | 209 | 0.3906 | 1.172 | 1.563 | 0.7813 | 1.00 | 0.7813 | 663 | 45.9 | 
9 | NC[C@H](N)CNS(=O)(=O)c1ccc(-c2cccc3ccc(N)nc23)c(-c2nn[nH]n2)c1S(N)(=O)=O [Example 371, (S)-4-(2-aminoquinolin-8-yl)-N1-(2,3-diaminopropyl)-3-(2H-tetrazol-5-yl)benzene-1,2-disulfonamide] | 188 | 0.7813 | 3.125 | 3.125 | 1.563 | 1.00 | 1.563 | 289 | 80.7 | 
10 | NC[C@H](N)CNS(=O)(=O)c1ccc(-c2cnc(N)s2)c(-c2nn[nH]n2)c1S(N)(=O)=O [Example 372, (S)-4-(2-aminothiazol-5-yl)-N1-(2,3-diaminopropyl)-3-(2H-tetrazol-5-yl)benzene-1,2-disulfonamide] |  | 1.563 | 1.563 | 3.125 | 1.563 | 2.00 | 0.7813 | 1280 | 574 | 914
11 | NC[C@H](N)CNS(=O)(=O)c1ccc(-c2cnc3cc[nH]c3c2)c(-c2nn[nH]n2)c1S(N)(=O)=O [Example 373, (S)-N1-(2,3-diaminopropyl)-4-(1H-pyrrolo[3,2-b]pyridin-6-yl)-3-(2H-tetrazol-5-yl)benzene-1,2-disulfonamide] | 121 | 0.3906 | 1.563 | 3.125 | 1.563 | 1.00 | 1.563 | 495 | 51.6 | 
12 | NC[C@@H](N)CNS(=O)(=O)c1ccc(-c2cccc3[nH]c(N)nc23)c(-c2nn[nH]n2)c1S(N)(=O)=O [Example 375, (R)-4-(2-amino-1H-benzo[d]imidazol-4-yl)-N1-(2,3-diaminopropyl)-3-(2H-tetrazol-5-yl)benzene-1,2-disulfonamide] | 233 | 0.3906 | 1.563 | 1.563 | 1.563 | 1.00 | 1.563 | 600 | 58.8 | 
13 | NC[C@@H](N)CNS(=O)(=O)c1ccc(-c2cccc3ccc(N)nc23)c(-c2nn[nH]n2)c1S(N)(=O)=O [Example 376, (R)-4-(2-aminoquinolin-8-yl)-N1-(2,3-diaminopropyl)-3-(2H-tetrazol-5-yl)benzene-1,2-disulfonamide] | 274 | 0.7813 | 3.125 | 3.125 | 1.563 | 1.00 | 1.563 | 272 | 55.1 | 
